Laboratory results published in ChEMBL document CHEMBL1201862, “PubChem BioAssay data set” (2004).
Where “and” joins values, the source holds several entries; their conditions need not be identical. Equal values may be shown once.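 Results reflect a 48-hour exposure of cells in 96-well plates to compound at five concentrations. GI50 = concentration required for 50% inhibition of growth.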 Calls of active or inactive are those of the source. Cut-off read from the data, not from the text of the source: active = GI50 up to about 1.1 µM and inactive = higher.

Assays:
Experiment in all cases: growth of human tumour cells (NCI), 48 h
[1] = system: A549
[2] = system: CAKI-1
[3] = system: CCRF-CEM
[4] = system: COLO 205
[5] = system: DMS-114
[6] = system: DMS-273
[7] = system: EKVX
[8] = system: HCT-15
[9] = system: HL-60
[10] = system: HT-29
[11] = system: IGROV-1
[12] = system: K562
[13] = system: KM12
[14] = system: LOX IMVI
[15] = system: M14
[16] = system: M19-MEL
[17] = system: MOLT-4
[18] = system: NCI-H226
[19] = system: NCI-H23
[20] = system: NCI-H522
[21] = system: OVCAR-3
[22] = system: OVCAR-8
[23] = system: RPMI-8226
[24] = system: RXF 393
[25] = system: SF-268
[26] = system: SF-295
[27] = system: SF-539
[28] = system: SK-MEL-28
[29] = system: SK-MEL-5
[30] = system: SK-OV-3
[31] = system: SN12C
[32] = system: SNB-19
[33] = system: SNB-75
[34] = system: SW-620
[35] = system: TK-10
[36] = system: UACC-257
[37] = system: UACC-62
[38] = system: UO-31
[39] = system: XF498
[40] = system: 786-0
[41] = system: ACHN
[42] = system: DLD-1
[43] = system: HCC 2998
[44] = system: HCT-116
[45] = system: HOP-62
[46] = system: KM-20L2
[47] = system: LXFL 529
[48] = system: Malme-3M
[49] = system: NCI-H460
[50] = system: SNB-78
[51] = system: SR
[52] = system: U-251
[53] = system: OVCAR-5
[54] = system: A498
[55] = system: HOP-92
[56] = system: SK-MEL-2

Nc1ccc([C@H]2C(=O)N[C@H]3CCC[C@H]32)cc1
GI50 [1]: > 100 µM (inactive)
GI50 [2]: > 100 µM (inactive)
GI50 [3]: > 100 µM (inactive)
GI50 [4]: > 100 µM (inactive)
GI50 [5]: > 100 µM (inactive)
GI50 [6]: > 100 µM (inactive)
GI50 [7]: > 100 µM (inactive)
GI50 [8]: > 100 µM
GI50 [9]: > 100 µM (inactive)
GI50 [10]: > 100 µM (inactive)
GI50 [11]: > 100 µM (inactive)
GI50 [12]: > 100 µM (inactive)
GI50 [13]: > 100 µM (inactive)
GI50 [14]: > 100 µM (inactive)
GI50 [15]: > 100 µM (inactive)
GI50 [16]: > 100 µM (inactive)
GI50 [17]: > 100 µM (inactive)
GI50 [18]: > 100 µM (inactive)
GI50 [19]: > 100 µM (inactive)
GI50 [20]: > 100 µM (inactive)
GI50 [21]: > 100 µM (inactive)
GI50 [22]: > 100 µM (inactive)
GI50 [23]: > 100 µM (inactive)
GI50 [24]: > 100 µM (inactive)
GI50 [25]: > 100 µM (inactive)
GI50 [26]: > 100 µM (inactive)
GI50 [27]: > 100 µM (inactive)
GI50 [28]: > 100 µM (inactive)
GI50 [29]: > 100 µM (inactive)
GI50 [30]: > 100 µM (inactive)
GI50 [31]: > 100 µM (inactive)
GI50 [32]: > 100 µM (inactive)
GI50 [33]: > 100 µM (inactive)
GI50 [34]: > 100 µM (inactive)
GI50 [35]: > 100 µM (inactive)
GI50 [36]: > 100 µM (inactive)
GI50 [37]: > 100 µM (inactive)
GI50 [38]: > 100 µM (inactive)
GI50 [39]: > 100 µM (inactive)

CCCCc1c2c(nc3c1CC/C(=C\c1ccc([N+](=O)[O-])cc1)C3=O)CCCC2
GI50 [40]: 1.43 µM (inactive)
GI50 [1]: 4.41 µM (inactive)
GI50 [41]: 1.78 µM (inactive)
GI50 [3]: 1.46 µM (inactive)
GI50 [4]: 2.81 µM (inactive)
GI50 [42]: 1.75 µM (inactive)
GI50 [5]: 2.1 µM (inactive)
GI50 [6]: 1.76 µM (inactive)
GI50 [7]: 11.4 µM (inactive)
GI50 [43]: 1.78 µM (inactive)
GI50 [44]: 1.8 µM (inactive)
GI50 [8]: 0.312 µM
GI50 [45]: 1.73 µM (inactive)
GI50 [10]: 1.33 µM (inactive)
GI50 [11]: 1.8 µM (inactive)
GI50 [12]: 2.17 µM (inactive)
GI50 [46]: 2.01 µM (inactive)
GI50 [13]: 1.7 µM (inactive)
GI50 [14]: 1.6 µM (inactive)
GI50 [47]: 1.37 µM (inactive)
GI50 [15]: 1.85 µM (inactive)
GI50 [16]: 2.29 µM (inactive)
GI50 [17]: 1.77 µM (inactive)
GI50 [48]: 2 µM (inactive)
GI50 [18]: 2.28 µM (inactive)
GI50 [49]: 1.57 µM (inactive)
GI50 [20]: 1.51 µM (inactive)
GI50 [21]: 1.76 µM (inactive)
GI50 [22]: 1.88 µM (inactive)
GI50 [23]: 1.7 µM (inactive)
GI50 [24]: 1.3 µM (inactive)
GI50 [25]: 1.98 µM (inactive)
GI50 [26]: 2.1 µM (inactive)
GI50 [27]: 1.79 µM (inactive)
GI50 [28]: 1.69 µM (inactive)
GI50 [30]: 2.15 µM (inactive)
GI50 [31]: 1.88 µM (inactive)
GI50 [32]: 1.87 µM (inactive)
GI50 [33]: 8.65 µM (inactive)
GI50 [50]: 1.96 µM (inactive)
GI50 [51]: 2.86 µM (inactive)
GI50 [34]: 1.69 µM (inactive)
GI50 [35]: 1.66 µM (inactive)
GI50 [52]: 1.59 µM (inactive)
GI50 [36]: 2.3 µM (inactive)
GI50 [37]: 1.61 µM (inactive)
GI50 [38]: 2.13 µM (inactive)

O=c1[nH]c(=O)n([C@H]2C[C@H](O)[C@@H](CO)O2)cc1F [FLOXURIDINE]
GI50 [6]: 0.319 µM (active)
GI50 [53]: 103 µM (inactive) and > 89.9 µM (inactive)

NC(=O)C12CC3CC(CC(F)(C3)C1)C2
GI50 [40]: > 100 µM (inactive)
GI50 [54]: > 100 µM (inactive)
GI50 [1]: > 100 µM (inactive)
GI50 [41]: > 100 µM (inactive)
GI50 [3]: > 100 µM (inactive)
GI50 [4]: > 100 µM (inactive)
GI50 [42]: > 100 µM (inactive)
GI50 [5]: > 100 µM (inactive)
GI50 [6]: > 100 µM (inactive)
GI50 [7]: > 100 µM (inactive)
GI50 [43]: > 100 µM (inactive)
GI50 [44]: > 100 µM (inactive)
GI50 [9]: > 100 µM (inactive)
GI50 [45]: > 100 µM (inactive)
GI50 [55]: > 100 µM (inactive)
GI50 [10]: > 100 µM (inactive)
GI50 [11]: > 100 µM (inactive)
GI50 [12]: > 100 µM (inactive)
GI50 [46]: > 100 µM (inactive)
GI50 [13]: > 100 µM (inactive)
GI50 [14]: > 100 µM (inactive)
GI50 [47]: > 100 µM (inactive)
GI50 [15]: > 100 µM (inactive)
GI50 [16]: > 100 µM (inactive)
GI50 [17]: > 100 µM (inactive)
GI50 [48]: > 100 µM (inactive)
GI50 [19]: > 100 µM (inactive)
GI50 [49]: > 100 µM (inactive)
GI50 [20]: > 100 µM (inactive)
GI50 [21]: > 100 µM (inactive)
GI50 [53]: > 100 µM (inactive)
GI50 [22]: > 100 µM (inactive)
GI50 [23]: > 100 µM (inactive)
GI50 [24]: > 100 µM (inactive)
GI50 [27]: > 100 µM (inactive)
GI50 [28]: > 100 µM (inactive)
GI50 [56]: > 100 µM (inactive)
GI50 [30]: > 100 µM (inactive)
GI50 [33]: 57.4 µM (inactive)
GI50 [50]: > 100 µM (inactive)
GI50 [34]: > 100 µM (inactive)
GI50 [35]: > 100 µM (inactive)
GI50 [52]: > 100 µM (inactive)
GI50 [36]: > 100 µM (inactive)
GI50 [37]: > 100 µM (inactive)
GI50 [38]: > 100 µM (inactive)
GI50 [39]: > 100 µM (inactive)
